Data: patent US20110280941A1, “COMPOSITIONS OF PROTON PUMP INHIBITORS AND INSULIN SECRETAGOGUES, AND METHODS OF THEIR USE TO TREAT DIABETES” (Mefford Scientific, LLC, priority 2008, published 2011)

Columns and labels:
Type in all cases: in vivo, human
[1] = test system: Type II diabetic patients; test: % Beta Cell area calculated from the 2 hour glucose tolerance value (method of Meier et al) (Example 4); conditions: seven Type II diabetics; PPI administration
Experimental: (§1) Design: All subjects continued on their respective oral antidiabetic medications throughout the study. Baseline data was obtained in a fasting state after an overnight fast. Subjects were then administered 75 g of glucose and blood samples obtained at 1 and 2 hours. Following collection of baseline data, subjects were administered Omeprazole Delayed-Release Capsules USP, (Apotex Inc., Toronto, Canada M9L 179), 40 mg orally twice daily and blood samples again obtained after 8, and 16 weeks. Medications were not taken on the mornings of testing. Following the 16 week sample collection, subjects were increased to 80 mg Omeprazole twice daily and blood samples again obtained at 24 weeks.
Table 2 summarizes the effects of PPI administration on plasma Gastrin, Hemoglobin A1c and % Beta Cell area (calculated using the 2 hour glucose tolerance value by the method of Meier et al, Diabetes, vol 58, 1595-1603, 2009). […] Hemoglobin A1c, a measure of average blood glucose, was reduced by approximately 0.9% in this cohort, consistent with improved diabetes control (FIG. 6). Finally, the calculated Beta cell mass increased across the treatment period by approximately 25%.

[2] = test system: Type II diabetic patients; test: Hemoglobin A1c during 24 week omeprazole trial (Example 4)
Experimental: (§2) Seven Type II diabetic patients were administered omeprazole for 24 weeks and data was obtained from fasting and following a 2 hour glucose tolerance test at 8 week intervals and compared to baseline values. Statistical comparisons and analysis were performed with a commercial program, Analyse-it, version 2.20.
(§3) Subjects: Five males, 2 females, age range 42-68 years, mean age 54+10 years. BMI's ranged from 31 to 49, mean 38+6. All subjects had co-morbid hypertension, four had co-morbid dyslipidemia and two had co-morbid hypothyroidism. All were stable on oral diabetes medications with 7/7 on metformin, 6/7 on pioglitazone (Actos), 4/7 on a DPP-4 inhibitor, sitagliptan (Januvia) and 4/7 on a Sulfonylurea. All subjects received a physical exam, review of systems and a baseline EKG prior to initiating the PPI trial. Subjects were then seen and evaluated at monthly intervals interviewed for adverse events and monitored for medication compliance and maintenance of daily blood glucose logs.
Design: All subjects continued on their respective oral antidiabetic medications throughout the study. Baseline data was obtained in a fasting state after an overnight fast. Subjects were then administered 75 g of glucose and blood samples obtained at 1 and 2 hours. […]

[3] = test system: Type II diabetic patients; test: Plasma gastrin during 24 week omeprazole trial (Example 4); conditions: serum levels gradually reduced over time (FIG. 7)
Experimental: Statistical comparisons and analysis were performed with a commercial program, Analyse-it, version 2.20. Design: All subjects continued on their respective oral antidiabetic medications throughout the study. Baseline data was obtained in a fasting state after an overnight fast. Subjects were then administered 75 g of glucose and blood samples obtained at 1 and 2 hours. Following collection of baseline data, subjects were administered Omeprazole Delayed-Release Capsules USP, (Apotex Inc., Toronto, Canada [MUT] 179), 40 mg orally twice daily and blood samples again obtained after 8, and 16 weeks. Medications were not taken on the mornings of testing. Following the 16 week sample collection, subjects were increased to 80 mg Omeprazole twice daily and blood samples again obtained at 24 weeks. Measurements: Helicobacter Pylori IgG was obtained on each subject as a baseline as were Hemoglobin A1c and fasting Gastrin. Each 2 hour glucose tolerance test provided fasting glucose, insulin and c-peptide as well as 1 hour and 2 hour glucose and stimulated insulin and c-peptide. All measurements were obtained through a commercial laboratory using standardized analytical methods, Quest Diagnostics Laboratory, 5850 Rogerdale Road, Houston, Tex.

[4] = test system: Type II diabetic patients; test: 2 hour glucose tolerance test during 24 week omeprazole trial (Example 4)
Experimental: as §2, §3, §1
Measurements: Helicobacter Pylori IgG was obtained on each subject as a baseline as were Hemoglobin A1c and fasting Gastrin. Each 2 hour glucose tolerance test provided fasting glucose, insulin and c-peptide as well as 1 hour and 2 hour glucose and stimulated insulin and c-peptide. All measurements were obtained through a commercial laboratory using standardized analytical methods, Quest Diagnostics Laboratory, 5850 Rogerdale Road, Houston, Tex. 77072.

[5] = after PPI administration (FIG. 4)

## COc1ccc2[nH]c([S+]([O-])Cc3ncc(C)c(OC)c3C)nc2c1 (stereo not drawn) [Omeprazole, 5-methoxy-2-[(4-methoxy-3,5-dimethyl-2-pyridinyl)methyl]sulfinyl-1H-benzimidazole]
[1]
  calculated Beta cell mass increase across the treatment period: approximately 25%
[2]; FIG. 1, statistically significant
  percent hemoglobin A1c, change for all patients: decrease
[2]; seven Type II diabetics, PPI administration up to 24 weeks (FIG. 6)
  Hemoglobin A1c reduction in this cohort: approximately 0.9%
[3]
  plasma gastrin, change by long term PPI administration: markedly elevated
[4]; 8 and 16 weeks, statistically significant reductions at 16 weeks (FIG. 3)
  maximum glucose excursion at both 1 and 2 hours, change: reduced
[4]; [5]
  Stimulated insulin secretion at both 1 and 2 hours, change: increased
  fasting insulin levels, change: unchanged
[4]; after PPI administration (FIG. 5)
  1 and 2 hour c-peptide secretion, change: increased
[4]; at both 8 and 16 weeks (FIG. 3)
  Fasting blood glucose, change: reduced
